Results reported in US6884808B2, “Heterocycle-containing carboxylic acid derivative and drug containing the same” (Eisai Co. Ltd., priority 1995, dated 2005).

Experiments:
[1] = molecular target: T1, Retinoic acid receptor: RAR (Homo sapiens, UniProt P10276); experiment: Receptor binding assay by using human promyelocytic leukemia cells HL60 (nucleus-extracted fraction, 3H-all-trans retinoic acid); settings: 50% inhibition concentration of 3H-all-trans retinoic acid binding, 4° C. for 16 hours
T1 construct: using a fraction extracted from the nucleus of HL60; endogenous in cells; host or cells: HL60 cells, nucleus-extracted fraction (0.4 M KCl extract, 100,000 x g supernatant)
T1 sequence (P10276 1-462): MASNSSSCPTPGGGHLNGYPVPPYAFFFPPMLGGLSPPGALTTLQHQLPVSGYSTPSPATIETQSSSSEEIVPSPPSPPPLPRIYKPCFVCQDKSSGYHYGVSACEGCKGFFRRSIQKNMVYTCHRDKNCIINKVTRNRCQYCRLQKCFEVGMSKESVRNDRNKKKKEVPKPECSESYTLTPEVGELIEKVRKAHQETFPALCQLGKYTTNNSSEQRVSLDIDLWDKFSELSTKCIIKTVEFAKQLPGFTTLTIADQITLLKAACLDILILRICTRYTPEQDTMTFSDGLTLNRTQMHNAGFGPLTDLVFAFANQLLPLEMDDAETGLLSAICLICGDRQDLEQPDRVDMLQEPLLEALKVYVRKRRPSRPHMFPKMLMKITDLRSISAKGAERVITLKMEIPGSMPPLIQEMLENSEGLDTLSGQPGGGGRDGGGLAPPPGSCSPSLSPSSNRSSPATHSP
Procedure: Receptor binding assay by using human promyelocytic leukemia cells HL60
The nucleus-extracted fraction was prepared as described below.
In 15 ml of Solution A [5 mM sodium phosphate (pH 7.4), 10 mM monothioglycerol, 10% v/v glycerol, 1 mM phenylmethyl sulfonyl fluoride (PMSF), 10 μg/ml of aprotinin and 25 μg/ml of leupeptin], HL60 cells (5×10^8) were suspended. The resulting suspension was homogenized, followed by centrifugal separation to remove the supernatant. The precipitate so obtained was suspended in 15 ml of Solution B [10 mM tris-HCl (Tris-HCl) (pH 8.5), 10 mM monothioglycerol, 10% (v/v) glycerol, 1 mM PMSF, 10 μg/ml aprotinin, 25 μg/ml leupeptin and 0.4 M KC1]. After being allowed to stand at 4° C. for one hour, the resulting suspension was subjected to ultracentrifugation at 100,000 xg and 4° C. for one hour.
Receptor binding assay was carried out as follows:
The resulting mixture was allowed to stand at 4° C. for 16 hours. […] The count of the supernatant was determined by a scintillation counter.

[2] = test system: HL60 cells; experiment: Differentiation and induction effects on HL60 cells (CD11b positive cells, flow cytometry); type: cell-based; settings: Homo sapiens, HL-60, 120 h; concentration at which the existing ratio of CD11b positive cells becomes 33%; cultivation for 5 days; read-out: Differentiation and induction effects of HL60 cells ED1/3
Description: Differentiation and Induction Effects on HL60 Cells
It is known that human-derived promyelocytic leukemia cell strains HL60 differentiate into the corresponding granulocytic cells in the presence of all-trans retinoic acid [Breitman, T. Selonick., S. and Colling, S. Proc. Natl. Acad. Sci., 77, 2936(1980)]. In general, cells after differentiation have come to express specific differentiated antigens on their surface. When the HL60 cells are differentiated into granulocytic cells, CD11b which is a differential antigen between granulocytes and monocytes is expressed on the surface of the cells [Fontana, J A., Reppuci, A. Durham, J P. and Mirand, D. Cancer Res. 46, 2469-2473(1986)]. Effects of the invention compound on the differentiation and induction into granulocyte cells were studied by making use of the above-described phenomenon.
HL60 cells were cultured and kept in RPMI 1640 (a medium formulated by Rosewell Park Memorial Institute) to which 10% bovine fetal serum, 1 mM sodium […], 50 μM β-mercaptoethanol, 100 IU/ml of penicillin and 100 μg/ml of streptomycin had been added.
On each well of a 24-well plate, a 1 ml portion of the suspension containing HL60 in an amount of 1×10^5 […] was seeded. The invention compound was then added thereto at varied concentrations, followed by cultivation for 5 days in a 5% CO2-air incubator. After cultivation, the cells of each well were collected in a test tube, to which an FITC-labeled monoclonal antibody against Cd11b, that is, a granulocyte-monocyte specific antigen was added. The cells were then immobilized with 0.2% paraformaldehyde. The existing ratio of CD11b positive cells in the vial HL60 cell group present in each well was determined using flow cytometry [Miller, L J., Schwarting, R. and Springer, T A. J. Immunol. 137, 2891-2900(1986)]. The existing ratios of CD11b positive cells-of-compounds which will be described below were increased according to the concentration. The concentration at which the existing ratio of the positive cells becomes 33% is defined as ED1/3.

| SMILES | IC50 [1] | EC (33% CD11b positive cells) [2] | melting point |
| --- | --- | --- | --- |
| CC1(C)CC(C)(C)c2nc(-c3ccc(-c4ccc(C(=O)O)cc4)[nH]3)cnc21 [Compound of Ex. 43, 4-[2-[5-[2-(5,5,7,7-Tetramethylcyclopenta[b]pyrazinyl)]-pyrrolyl]]benzoic acid] | 36 nM | 0.00036 µM | 269 °C (dec.) |
| CC(C)c1ncc(-c2ccc(-c3ccc(C(=O)O)cc3)[nH]2)nc1C(C)C [Compound of Ex. 42, 4-[2-[5-[2-(5,6-Diisopropylpyrazinyl)]pyrrolyl]]benzoic acid] | 2 nM | 0.00033 µM | 246 °C (dec.) |
| CC1(C)CCC(C)(C)c2nc(-c3cc(-c4ccc(C(=O)O)cc4)no3)cnc21 [Compound of Ex. 23, 4-[3-[5-[2-(5,6,7,8-Tetrahydro-5,5,8,8-tetramethylquinoxalyl)]isoxazolyl]]benzoic acid] | 11 nM | 0.0006 µM |  |
| CC1(C)CCC(C)(C)c2nc(-c3ccc(-c4ccc(C(=O)O)cc4)[nH]3)cnc21 [Compound of Ex. 6, 4-[2-[5-[2-(5,6,7,8-Tetrahydro-5,5,8,8-tetramethylquinoxalyl)]pyrrolyl]]benzoic acid] | 1.6 nM | 5.6e-05 µM |  |
| CC(C)c1cc(-c2ccc(-c3ccc(C(=O)O)cc3)[nH]2)nn1C(C)(C)C [Compound of Ex. 99, 4-{2-{5-[3-(1-tert-Butyl-5-isopropylpyrazolyl)]pyrrolyl}}benzoic acid] | 3.4 nM | 4.7e-05 µM |  |
| CC1(C)CCC(C)(C)c2nc(-c3cc(-c4ccc(C(=O)O)cc4)co3)cnc21 [Compound of Ex. 4, 4-[4-[2-[2-(5,6,7,8-Tetrahydro-5,5,8,8-tetramethylquinoxalyl)]furyl]]benzoic acid] | 7.2 nM | 0.0002 µM |  |
